≈ marks a conversion by molar mass, not a printed value. Counter-ions that a name gives are not always drawn. Like-named read-outs stand apart in the source and are kept apart here.
Tests used:
[1] = system: Morganella morganii IID 602; test: MIC by agar plate dilution method, Morganella morganii IID 602; format: cell-based; details: IID602
Experimental: (§1) Subsequently, there were tested the minimal inhibitory concentration (MIC) of the compounds of the present invention against various bacteria and the concentration of the compound in blood after oral administration to rats, and the results are shown.
(§2) The antibacterial activities of the compound of the present invention against various bacteria (inoculum size: 10^6 cells/ml) were tested by the agar plate dilution method, and the results are shown in the following Table 1.

[2] = system: Staphylococcus aureus FDA 209P-JC; test: MIC by agar plate dilution method, Staphylococcus aureus FDA 209P-JC; format: cell-based; details: FDA209P, inoculum size 10^6 cells/ml
Experimental: as §1, §2

[3] = system: Serratia marcescens IID 618; test: MIC by agar plate dilution method, Serratia marcescens IID 618; format: cell-based; details: IID618
Experimental: as §1, §2

[4] = system: Klebsiella pneumoniae T 25; test: MIC by agar plate dilution method, Klebsiella pneumoniae T 25; format: cell-based; details: T25, inoculum size 10^6 cells/ml
Experimental: as §1, §2

[5] = system: Escherichia coli NIHJ JC-2; test: MIC by agar plate dilution method, Escherichia coli NIHJ JC-2; format: cell-based; details: NIHJJC2, inoculum size 10^6 cells/ml
Experimental: as §1, §2

[6] = system: Bacillus cereus S 1101; test: MIC by agar plate dilution method, Bacillus cereus S 1101; format: cell-based; details: S1101
Experimental: as §1, §2

[7] = concentration of the compound in blood after oral administration to rats; format: in vivo, Male wister rats; details: rat, 50 mg/kg, bioassay (Escherichia coli SC507)
Experimental: Male wister rats (7 weeks old) were administered orally with the test compound, and the change of the concentration of the compound in blood was measured.
Dosage of the test compound: 50 mg/kg
Quantitative method: Bioassy
(test bacterium: Escherichia coli SC507)

[8] = Morganella morganii IID 602, inoculum size 10^6 cells/ml, read-out: MIC
[9] = Serratia marcescens IID 618, inoculum size 10^6 cells/ml, read-out: MIC
[10] = Bacillus cereus S 1101, inoculum size 10^6 cells/ml, read-out: MIC

SMILES | MIC [1, 8] [µg/mL] | MIC [2] [µg/mL] | MIC [3, 9] [µg/mL] | MIC [4] [µg/mL] | MIC [5] [µg/mL] | MIC [6, 10] [µg/mL] | concentration at 1 h [7] [ng/mL] | concentration at 2 h [7] [ng/mL] | concentration at 4 h [7] [ng/mL] | MIC ([1]; Morganella morganii) [µg/mL] | MIC ([3]; Serratia marcescens) [µg/mL] | MIC ([6]; Bacillus cereus) [µg/mL]
NC(=O)CCSC1=C(C(=O)O)N2C(=O)[C@@H](NC(=O)/C(=N\OCC(=O)O)c3csc(N)n3)[C@H]2SC1 [F] | 0.1 (≈ 0.188 µM) | 12.5 (≈ 23.6 µM) | 0.78 (≈ 1.47 µM) | 12.5 (≈ 23.6 µM) | 1.56 (≈ 2.94 µM) | 0.2 (≈ 0.377 µM) |  |  |  |  |  | 
NCCCSC1=C(C(=O)O)N2C(=O)[C@@H](NC(=O)/C(=N\OCC(=O)O)c3csc(N)n3)[C@H]2SC1 [D] | 0.39 (≈ 0.755 µM) | 6.25 (≈ 12.1 µM) | 0.39 (≈ 0.755 µM) | 3.13 (≈ 6.06 µM) | 0.78 (≈ 1.51 µM) | 0.2 (≈ 0.387 µM) | 11900 | 16600 | 15400 |  |  | 
Nc1nc(/C(=N/OCC(=O)O)C(=O)N[C@@H]2C(=O)N3C(C(=O)O)=C(SCCF)CS[C@H]23)cs1 [C] | < 0.1 | 6.25 (≈ 12.4 µM) | 1.56 (≈ 3.09 µM) | 25 (≈ 49.5 µM) | 1.56 (≈ 3.09 µM) | 0.2 (≈ 0.396 µM) | 25600 | 9100 | 4000 |  |  | 
COCCSC1=C(C(=O)O)N2C(=O)[C@@H](NC(=O)/C(=N\OCC(=O)O)c3csc(N)n3)[C@H]2SC1 [B] | ≤ 0.1 | 25 (≈ 48.3 µM) | 1.56 (≈ 3.01 µM) | 6.25 (≈ 12.1 µM) | 0.78 (≈ 1.51 µM) | 0.39 (≈ 0.754 µM) |  |  |  |  |  | 
CC1=C(C(=O)O)N2C(=O)[C@@H](NC(=O)[C@H](N)c3ccccc3)[C@H]2SC1 [YY, Cefalexin, reference compound] |  | 0.78 (≈ 2.25 µM) |  |  |  |  |  |  |  | 200 (≈ 576 µM) | > 400 | ≤ 0.1
Nc1nc(/C(=N/OCC(=O)O)C(=O)N[C@@H]2C(=O)N3C(C(=O)O)=C(SCc4ccccn4)CS[C@H]23)cs1 [E] | ≤ 0.1 | 12.5 (≈ 22.7 µM) | 0.78 (≈ 1.42 µM) | 1.56 (≈ 2.83 µM) | 0.39 (≈ 0.708 µM) | 0.39 (≈ 0.708 µM) |  |  |  |  |  | 
NC(=O)OCCSC1=C(C(=O)O)N2C(=O)[C@@H](NC(=O)/C(=N\OCC(=O)O)c3csc(N)n3)[C@H]2SC1 [G, 7β-{α-(2-aminothiazole-4-yl)-α-[(Z)-carboxymethoxyimino]acetamido}-3-(2-carbamoyloxy)ethylthio-3-cephem-4-carboxylic acid sodium salt] | ≤ 0.1 | 12.5 | 0.78 | 6.25 | 0.39 | 0.2 |  |  |  |  |  | 
CSC1=C(C(=O)O)N2C(=O)[C@@H](NC(=O)/C(=N\OCC(=O)O)c3csc(N)n3)[C@H]2SC1 [XX, 7{(2-aminothiazole-4-yl)-[(Z)carboxy-methoxyimino]acetamido3-methylthio-3cephem-4-carboxylic acid sodium salt, reference compound] | 0.39 | 50 | 1.56 | 25 | 1.56 | 0.78 |  |  |  |  |  | 
N#CCSC1=C(C(=O)O)N2C(=O)[C@@H](NC(=O)/C(=N\OCC(=O)O)c3csc(N)n3)[C@H]2SC1 [A] | < 0.1 | 6.25 (≈ 12.5 µM) | 0.78 (≈ 1.56 µM) | 25 (≈ 50.1 µM) | 1.56 (≈ 3.13 µM) | 0.2 (≈ 0.401 µM) | 28700 | 19500 | 4300 |  |  | 
